Test results published in ChEMBL document CHEMBL1201862, “PubChem BioAssay data set” (2004).
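Values below derive from 48-hour exposures of cells grown in 96-well plates, with endpoints linearly interpolated between the two concentrations bracketing the appropriate inhibition level. GI50: concentration for 50% inhibition of growth.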 The source made the active and inactive calls. No stated cut-off is given here; in the data, active = GI50 up to about 1.1 µM and inactive = higher.

Experiments:
Experiment in all cases: DTP human tumour cell line panel, 48 h
[1] = test system: DMS-273
[2] = test system: M14
[3] = test system: UO-31
[4] = test system: HCT-15
[5] = test system: HOP-62
[6] = test system: LXFL 529
[7] = test system: HOP-92
[8] = test system: HCC 2998
[9] = test system: NCI-H226
[10] = test system: UACC-257
[11] = test system: SNB-19
[12] = test system: HCT-116
[13] = test system: OVCAR-8
[14] = test system: HT-29
[15] = test system: KM12
[16] = test system: SK-MEL-2
[17] = test system: SN12C
[18] = test system: CAKI-1
[19] = test system: M19-MEL
[20] = test system: OVCAR-5
[21] = test system: COLO 205
[22] = test system: HL-60
[23] = test system: OVCAR-3
[24] = test system: SR
[25] = test system: SF-295
[26] = test system: KM-20L2
[27] = test system: NCI-H460
[28] = test system: LOX IMVI
[29] = test system: OVCAR-4
[30] = test system: HOP-18
[31] = test system: SW-620
[32] = test system: Malme-3M
[33] = test system: U-251
[34] = test system: SNB-78
[35] = test system: SK-OV-3
[36] = test system: ACHN
[37] = test system: SNB-75
[38] = test system: TK-10
[39] = test system: SK-MEL-28
[40] = test system: NCI-H522
[41] = test system: RPMI-8226
[42] = test system: CCRF-CEM
[43] = test system: DLD-1
[44] = test system: UACC-62
[45] = test system: NCI-H23
[46] = test system: EKVX
[47] = test system: 786-0
[48] = test system: DMS-114
[49] = test system: IGROV-1
[50] = test system: A549
[51] = test system: K562
[52] = test system: SF-268
[53] = test system: MOLT-4
[54] = test system: SF-539
[55] = test system: SK-MEL-5
[56] = test system: A498
[57] = test system: XF498
[58] = test system: RXF 393

`O=C(Nc1cccc(C(F)(F)F)c1)c1cc(-c2ccccc2)nc(S)n1` was tested, and the GI50 [1] was > 100 µM (inactive), the GI50 [2] was > 100 µM (inactive) and the GI50 [3] was > 100 µM (inactive). For the same compound, the GI50 [4] was > 100 µM, the GI50 [5] was > 100 µM (inactive) and the GI50 [6] was > 100 µM (inactive). For the same compound, the GI50 [7] was > 100 µM (inactive), the GI50 [8] was > 100 µM (inactive) and the GI50 [9] was > 100 µM (inactive). The GI50 [10] was > 100 µM (inactive), the GI50 [11] was > 100 µM (inactive) and the GI50 [12] was > 100 µM (inactive). For the same compound, the GI50 [13] was > 100 µM (inactive), the GI50 [14] was > 100 µM (inactive) and the GI50 [15] was > 100 µM (inactive). The GI50 [16] was > 100 µM (inactive), the GI50 [17] was > 100 µM (inactive) and the GI50 [18] was > 100 µM (inactive). For the same compound, the GI50 [19] was > 100 µM (inactive), the GI50 [20] was > 100 µM (inactive) and the GI50 [21] was > 100 µM (inactive). For the same compound, the GI50 [22] was > 100 µM (inactive), the GI50 [23] was > 100 µM (inactive) and the GI50 [24] was > 100 µM (inactive). The GI50 [25] was > 100 µM (inactive), the GI50 [26] was > 100 µM (inactive) and the GI50 [27] was > 100 µM (inactive). For the same compound, the GI50 [28] was > 100 µM (inactive), the GI50 [29] was > 100 µM (inactive) and the GI50 [30] was > 100 µM (inactive). For the same compound, the GI50 [31] was > 100 µM (inactive) and the GI50 [32] was > 100 µM (inactive).
With `C=C1C(=O)C23C(O)CC4C5(C)CCCC4(C(O)OC5)C2C(OC(C)=O)CC1C3O` (stereo not given) the GI50 [33] was 16.6 µM (inactive), the GI50 [1] was 17.9 µM (inactive) and the GI50 [2] was 3.41 µM (inactive). The GI50 [3] was 34.5 µM (inactive), the GI50 [34] was 6.03 µM (inactive) and the GI50 [35] was 19.7 µM (inactive). For the same compound, the GI50 [4] was 11.7 µM, the GI50 [36] was 12.2 µM (inactive) and the GI50 [5] was 17.5 µM (inactive). The GI50 [6] was 2.61 µM (inactive), the GI50 [7] was 3.52 µM (inactive) and the GI50 [8] was 18.2 µM (inactive). For the same compound, the GI50 [37] was 4.28 µM (inactive), the GI50 [9] was 19.5 µM (inactive) and the GI50 [38] was 10.9 µM (inactive). The GI50 [11] was 14.7 µM (inactive), the GI50 [39] was 10.5 µM (inactive) and the GI50 [40] was 1.58 µM (inactive). For the same compound, the GI50 [12] was 5.11 µM (inactive), the GI50 [41] was 3.64 µM (inactive) and the GI50 [13] was 2.75 µM (inactive). For the same compound, the GI50 [42] was 1.88 µM (inactive), the GI50 [14] was 5 µM (inactive) and the GI50 [15] was 9.02 µM (inactive). For the same compound, the GI50 [16] was 13.8 µM (inactive), the GI50 [17] was 10.6 µM (inactive) and the GI50 [43] was 5.06 µM (inactive). The GI50 [44] was 6.73 µM (inactive), the GI50 [18] was 4.95 µM (inactive) and the GI50 [45] was 5.41 µM (inactive). For the same compound, the GI50 [46] was 14.6 µM (inactive), the GI50 [47] was 6.31 µM (inactive) and the GI50 [48] was 4.51 µM (inactive). For the same compound, the GI50 [19] was 13.8 µM (inactive), the GI50 [20] was 18 µM (inactive) and the GI50 [49] was 19.4 µM (inactive). For the same compound, the GI50 [21] was 5.16 µM (inactive), the GI50 [23] was 13.2 µM (inactive) and the GI50 [24] was 3.01 µM (inactive). For the same compound, the GI50 [25] was 21.5 µM (inactive), the GI50 [26] was 8.95 µM (inactive) and the GI50 [50] was 20.8 µM (inactive). The GI50 [27] was 4.97 µM (inactive), the GI50 [51] was 2.58 µM (inactive) and the GI50 [28] was 13.5 µM (inactive). For the same compound, the GI50 [29] was 14.3 µM (inactive), the GI50 [30] was 16.7 µM (inactive) and the GI50 [52] was 13.3 µM (inactive). For the same compound, the GI50 [53] was 3.66 µM (inactive), the GI50 [31] was 2.91 µM (inactive) and the GI50 [54] was 10.9 µM (inactive). For the same compound, the GI50 [32] was 14.3 µM (inactive) and the GI50 [55] was 14.8 µM (inactive).
`O=C(CC(=O)c1ccccc1)c1ccccc1.O=C(CC(=O)c1ccccc1)c1ccccc1.O=C(CC(=O)c1ccccc1)c1ccccc1.[SiH4]` was tested, and the GI50 [33] was 2.86 µM (inactive), the GI50 [2] was 6.24 µM (inactive) and the GI50 [3] was 4.56 µM (inactive). For the same compound, the GI50 [35] was 5.79 µM (inactive), the GI50 [36] was 3.63 µM (inactive) and the GI50 [56] was 10.6 µM (inactive). The GI50 [5] was 7.59 µM (inactive), the GI50 [6] was 3.39 µM (inactive) and the GI50 [7] was 4.57 µM (inactive). For the same compound, the GI50 [8] was 3.6 µM (inactive), the GI50 [37] was 10.4 µM (inactive) and the GI50 [9] was 8.87 µM (inactive). For the same compound, the GI50 [10] was 9.42 µM (inactive), the GI50 [38] was 5.97 µM (inactive) and the GI50 [11] was 4.74 µM (inactive). For the same compound, the GI50 [39] was 7.76 µM (inactive), the GI50 [40] was 2.26 µM (inactive) and the GI50 [12] was 5.02 µM (inactive). The GI50 [41] was 4.03 µM (inactive), the GI50 [57] was 3.87 µM (inactive) and the GI50 [13] was 3.47 µM (inactive). The GI50 [42] was 1.14 µM (inactive), the GI50 [14] was 4.41 µM (inactive) and the GI50 [15] was 3.48 µM (inactive). The GI50 [17] was 3.95 µM (inactive), the GI50 [43] was 3.7 µM (inactive) and the GI50 [44] was 3.89 µM (inactive). For the same compound, the GI50 [18] was 4.92 µM (inactive), the GI50 [45] was 3.15 µM (inactive) and the GI50 [46] was 6.65 µM (inactive). For the same compound, the GI50 [47] was 7.74 µM (inactive), the GI50 [48] was 2.3 µM (inactive) and the GI50 [19] was 3.31 µM (inactive). For the same compound, the GI50 [20] was 12.4 µM (inactive), the GI50 [49] was 5.4 µM (inactive) and the GI50 [21] was 2.21 µM (inactive). The GI50 [22] was 1.92 µM (inactive), the GI50 [23] was 2.42 µM (inactive) and the GI50 [24] was 3.57 µM (inactive). The GI50 [25] was 4.65 µM (inactive), the GI50 [26] was 4.18 µM (inactive) and the GI50 [50] was 3.01 µM (inactive). The GI50 [51] was 3.88 µM (inactive), the GI50 [28] was 3.1 µM (inactive) and the GI50 [29] was 4.63 µM (inactive). For the same compound, the GI50 [30] was 6.71 µM (inactive), the GI50 [52] was 3.37 µM (inactive) and the GI50 [53] was 2.59 µM (inactive). The GI50 [31] was 4.15 µM (inactive), the GI50 [54] was 8.67 µM (inactive) and the GI50 [32] was 11.8 µM (inactive). For the same compound, the GI50 [55] was 4.66 µM (inactive).
`Cc1ccc(S(=O)(=O)NCC2CCCCC2=O)cc1` (stereo not given) was tested, and the GI50 [33] was > 100 µM (inactive), the GI50 [1] was > 100 µM (inactive) and the GI50 [2] was > 100 µM (inactive). For the same compound, the GI50 [3] was 57.3 µM (inactive), the GI50 [34] was > 100 µM (inactive) and the GI50 [35] was > 100 µM (inactive). For the same compound, the GI50 [4] was > 100 µM, the GI50 [56] was > 100 µM (inactive) and the GI50 [6] was > 100 µM (inactive). For the same compound, the GI50 [7] was 24.2 µM (inactive), the GI50 [37] was 22.9 µM (inactive) and the GI50 [9] was > 100 µM (inactive). The GI50 [10] was 16.4 µM (inactive), the GI50 [38] was > 100 µM (inactive) and the GI50 [11] was > 100 µM (inactive). For the same compound, the GI50 [39] was > 100 µM (inactive), the GI50 [40] was 56.8 µM (inactive) and the GI50 [12] was > 100 µM (inactive). The GI50 [41] was 40.8 µM (inactive), the GI50 [57] was > 100 µM (inactive) and the GI50 [13] was > 100 µM (inactive). For the same compound, the GI50 [42] was > 100 µM (inactive), the GI50 [14] was 10.2 µM (inactive) and the GI50 [15] was > 100 µM (inactive). The GI50 [16] was > 100 µM (inactive), the GI50 [17] was > 100 µM (inactive) and the GI50 [44] was 66.5 µM (inactive). For the same compound, the GI50 [58] was > 100 µM (inactive), the GI50 [18] was 15 µM (inactive) and the GI50 [45] was > 100 µM (inactive). For the same compound, the GI50 [46] was > 100 µM (inactive), the GI50 [47] was > 100 µM (inactive) and the GI50 [48] was 51.9 µM (inactive). For the same compound, the GI50 [19] was > 100 µM (inactive), the GI50 [20] was > 100 µM (inactive) and the GI50 [49] was > 100 µM (inactive). For the same compound, the GI50 [21] was > 100 µM (inactive), the GI50 [22] was 45.3 µM (inactive) and the GI50 [23] was > 100 µM (inactive). For the same compound, the GI50 [25] was > 100 µM (inactive), the GI50 [26] was > 100 µM (inactive) and the GI50 [50] was > 100 µM (inactive). The GI50 [27] was > 100 µM (inactive), the GI50 [51] was 66.1 µM (inactive) and the GI50 [28] was > 100 µM (inactive). The GI50 [29] was 69.3 µM (inactive), the GI50 [30] was > 100 µM (inactive) and the GI50 [52] was 70 µM (inactive). The GI50 [53] was 49.7 µM (inactive), the GI50 [31] was > 100 µM (inactive) and the GI50 [54] was > 100 µM (inactive). The GI50 [32] was > 100 µM (inactive) and the GI50 [55] was 82.4 µM (inactive).
